Laboratory results reported in US10159634B2, “Compositions and methods for inhibiting hair growth” (priority 2009, dated 2018).

Tested on: C3H mice
Assay: Telogen Conversion Assay
Format: in vivo
Settings: for hair growth (average grade): grades of 7 mice after 23 days, example written in present tense; for Average Grades: average of 7 mice, visual grade 0 (pink skin) to 4 (full anagen), topical; for hair regrowth (regrowth score, FIG. 1): applied daily, week 3 and week 4, at the appropriate dose-level, compared to the control group
Method: FP receptor antagonists are tested for their potential to […] using the Telogen Conversion Assay. The Telogen Conversion Assay measures the potential of a FP receptor antagonist to inhibit the conversion of mice in the resting stage of the hair growth cycle (“telogen”), to the growth stage of the hair growth cycle (“anagen”), and to assess the rate of anagen growth.
Without intending to be limited by theory, there are three principal phases of the hair growth cycle: anagen, catagen, and telogen. It is believed that there is a longer telogen period in C3H mice (Harlan Sprague Dawley, Inc., Indianapolis, Ind.) from approximately 40 days of age until about 75 days of age, when hair growth is synchronized. It is believed that after 75 days of age, hair growth is no longer synchronized. Wherein about 40 day-old mice with dark fur (brown or black) are used in hair growth experiments, melanogenesis occurs along with hair (fur) growth wherein the topical application of hair growth inducers is evaluated. The Telogen Conversion Assay herein is used to screen FP receptor antagonists for potential hair growth by measuring melanogenesis and/or inhibition of expected hair growth.
Three groups of 44 day-old C3H mice are used: a vehicle control group, a positive control group, and a test FP receptor antagonist group, wherein the test FP receptor antagonist group is administered a FP receptor antagonist F used in the method of this invention. The length of the assay is typically 24 days with 15 treatment days (wherein the treatment days occur Mondays through Fridays). Day 1 is the first day of treatment. Typical dosage concentrations are set forth in Table 1, however the skilled artisan will readily understand that such concentrations may be modified.
The mice are treated topically Monday through Friday on their lower back (base of tail to the lower rib). A pipette and tip are used to deliver 400 μl to each mouse's back. The 400 μL application is applied slowly while moving hair on the mouse to allow the application to reach the skin.
While each treatment is being applied to the mouse topically, a visual grade of from 0 to 4 will be given to the skin color in the application area of each animal. As a mouse converts from telogen to anagen, its skin color will become more bluish-black.

Compound | hair growth (average grade) | Average Grades (23 Days) | Average Grades (25 Days) | Average Grades (26 Days) | hair regrowth (regrowth score, FIG. 1)
CC(C)OC(=O)CCC/C=C\CC1C(/C=C/[C@H](O)C2Cc3ccccc3C2)[C@@H](F)C[C@@H]1O (stereo partly drawn) [Example 4] | significantly reduces hair growth | – | – | – | –
O=C(O)CCC/C=C\CC1C(/C=C/[C@H](O)C2Cc3ccccc3C2)[C@@H](F)C[C@@H]1O (stereo partly drawn) [Example 1] | – | 0.4 | 0.1 | 0.7 | –
COC(=O)CCC/C=C\CC1C(/C=C/[C@H](O)C2Cc3ccccc3C2)[C@@H](F)C[C@@H]1O (stereo partly drawn) [Example 2] | – | 0.1 | – | – | inhibited hair regrowth
Ile-Leu-Gly-His-(citrulline)-Asp-Tyr-Lys [Example 5] | significantly reduces hair growth | – | – | – | –
O=C(N[C@H](c1ccccc1)c1ccccn1)[C@@H]1SCCN1S(=O)(=O)c1ccc(-c2ccccc2)cc1 [Example 3] | significantly reduces hair growth | – | – | – | inhibited hair regrowth
